ChEMBL document CHEMBL4033625, “Novel organophosphorus scaffolds of urease inhibitors obtained by substitution of Morita-Baylis-Hillman adducts with phosphorus nucleophiles” (Eur J Med Chem, 2017)
Activity calls are given as the source filed them. The calls are words filed in the database; no cut-off is given here.

Key:
[1] = Competitive inhibition of Sporosarcina pasteurii CCM 2056 urease using varying levels of urea as substrate pretreated for 60 mins followed by substrate addition after 10 mins by Lineweaver-Burk plot analysis
[2] = Inhibition of Sporosarcina pasteurii CCM 2056 urease using urea as substrate after 15 mins by phenol-hypochlorite reagent based colorimetric method
[3] = Inhibition of Sporosarcina pasteurii CCM 2056 urease using urea as substrate pretreated for 60 mins followed by substrate addition after 15 mins by phenol-hypochlorite reagent based colorimetric method
[4] = Competitive inhibition of Sporosarcina pasteurii CCM 2056 urease using varying levels of urea as substrate after 10 mins by Lineweaver-Burk plot analysis
Sporosarcina pasteurii [5] = experiment: Inhibition of Sporosarcina pasteurii CCM 2056 urease up to 2 mM using urea as substrate pretreated for 60 mins followed by substrate addition after 15 mins by phenol-hypochlorite reagent based colorimetric method
Sporosarcina pasteurii [6] = experiment: Potency index, ratio of Methyl (Z)-2-{[hydrogen(hydroxy)phosphoryl]methyl}-3-phenylpropenoate Ki to compound Ki for competitive inhibition of Sporosarcina pasteurii CCM 2056 urease using varying levels of urea as substrate pretreated for 60 mins followed by substrate addition measured after 10 mins
Sporosarcina pasteurii [7] = experiment: Ratio of Kinact to Ki for Sporosarcina pasteurii CCM 2056 urease
[8] = Irreversible inhibition of Sporosarcina pasteurii CCM 2056 urease assessed as reduction in ammonia production using urea as substrate measured for 120 mins by Berthelot colorimetric assay
[9] = Irreversible inhibition of Sporosarcina pasteurii CCM 2056 urease assessed as reduction in ammonia production using urea as substrate pretreated for 60 mins followed by substrate addition measured for 120 mins by Berthelot colorimetric assay
[10] = Inhibition of Proteus mirabilis urease
[11] = Slow-binding inhibition of Sporosarcina pasteurii CCM 2056 urease using varying levels of urea as substrate pretreated for 60 mins followed by substrate addition after 120 mins by phenol-hypochlorite reagent based colorimetric method
[12] = Slow-binding inhibition of Sporosarcina pasteurii CCM 2056 urease using varying levels of urea as substrate after 120 mins by phenol-hypochlorite reagent based colorimetric method

In the case of `O=C(O)/C(=C/c1ccccc1)CCP(=O)(O)O`, the Ki [1] is reported as 66.7 µM, the IC50 [2] is reported as 83.4 µM and the IC50 [3] is reported as 48.4 µM. The Ki [4] was 55.6 µM.

For `COC(=O)/C(=C/c1ccccc1)CP(=O)(O)CN`, the inhibition (Sporosarcina pasteurii [5]) was “inactive”.

Compound `COc1ccc(/C=C(\CP(=O)(O)O)C(=O)O)cc1` has a Ki [1] of 34.4 µM and a Ki [4] of 28.9 µM.

`COC(=O)/C(=C/c1ccc(NC(C)=O)cc1)CP(=O)(O)O` gave a Ki [1] of 386 µM and a Ki [4] of 404 µM.

`COC(=O)/C(=C/c1ccc(NC(C)=O)cc1)C[PH](=O)O` gave a Ki [1] of 13.4 µM, a Ratio Ki (Sporosarcina pasteurii [6]) of 5 to 7 and a Ki [4] of 20.6 µM.

In the case of `C=C(C(=O)OC)C(OC(C)=O)c1ccc(F)cc1` (configuration not stated), the Ratio (Sporosarcina pasteurii [7]) is reported as 525 M⁻¹ s⁻¹, the IC50 [8] is reported as 64.2 µM and the IC50 [9] is reported as 4.15 µM.

With `C=C(C(=O)OC)C(OC(C)=O)c1ccc(C)cc1` (configuration not stated) the Ratio (Sporosarcina pasteurii [7]) was 5.62 M⁻¹ s⁻¹, the IC50 [8] was over 1000 µM and the IC50 [9] was 331 µM.

`COC(=O)/C(=C/c1ccc(OC)cc1)CP(=O)(O)O` gave a Ki [1] of 229 µM and a Ki [4] of 239 µM.

`Cc1ccc(/C=C(\CP(=O)(O)O)C(=O)O)cc1` gave a Ki [1] of 0.594 µM, a Ki [4] of 0.674 µM and a Ki [10] of 0.485 µM.

In the case of `COC(=O)/C(=C/c1ccc(C)cc1)CP(=O)(O)O`, the Ki [1] is reported as 20.7 µM and the Ki [4] is reported as 21.4 µM.

`Cc1ccc(/C=C(\CCP(=O)(O)O)C(=O)O)cc1` gave a Ki [1] of 66.7 µM.

In the case of `O=C(O)/C(=C/c1ccccc1)CP(=O)(O)CO`, the inhibition (Sporosarcina pasteurii [5]) is reported as “inactive”.

Compound `C=C(C(=O)OC)C(OC(C)=O)c1ccc(Cl)cc1` (configuration not stated) has a Ratio (Sporosarcina pasteurii [7]) of 75.3 M⁻¹ s⁻¹, an IC50 [8] of 53.2 µM and an IC50 [9] of 17.7 µM.

Compound `COC(=O)/C(=C/c1ccc(C)cc1)C[PH](=O)O` has a Ki [1] of 23.4 µM, a Ratio Ki (Sporosarcina pasteurii [6]) of 5 to 7 and a Ki [4] of 41.6 µM.

`C=C(C(=O)OC)C(OC(C)=O)c1ccc(OC)cc1` (configuration not stated) showed a Ratio (Sporosarcina pasteurii [7]) of under 1 M⁻¹ s⁻¹, an IC50 [8] of over 2000 µM and an IC50 [9] of 1240 µM.

Work on `NCP(=O)(O)C/C(=C\c1ccccc1)C(=O)O` yielded a Ki [1] of 1320 µM, an IC50 [2] of 1510 µM and an IC50 [3] of 1340 µM. It also gave a Ki [4] of 1420 µM.

For `COC(=O)/C(=C/c1ccc([N+](=O)[O-])cc1)CCP(=O)(O)O`, the Ki [11] was 362 µM and the Ki [12] was 54.1 µM.

Work on `COC(=O)/C(=C/c1ccc(Cl)cc1)CP(=O)(O)O` yielded a Ki [1] of 81.2 µM and a Ki [4] of 88.9 µM.

For `COC(=O)/C(=C/c1ccccc1)CP(=O)(O)O`, the inhibition (Sporosarcina pasteurii [5]) was “inactive”.

For `O=C(O)/C(=C/c1ccc(Cl)cc1)CP(=O)(O)O`, the Ki [1] was 16.2 µM and the Ki [4] was 19.6 µM.

Compound `C=C(C(=O)OC)C(OC(C)=O)c1ccc(NC(C)=O)cc1` (configuration not stated) has a Ratio (Sporosarcina pasteurii [7]) of 2.78 M⁻¹ s⁻¹, an IC50 [8] of over 1000 µM and an IC50 [9] of 302 µM.

With `COC(=O)/C(=C/c1ccccc1)C[PH](=O)O` the Ki [1] was 97.5 µM, the IC50 [2] was 201 µM and the IC50 [3] was 104 µM. It also gave a Ki [4] of 177 µM.

Compound `COC(=O)/C(=C/c1ccc(OC)cc1)CCP(=O)(O)O` has a Ki [1] of 292 µM and a Ki [4] of 327 µM.

`COC(=O)/C(=C/c1ccc(Cl)cc1)C[PH](=O)O` gave a Ki [1] of 16.7 µM, a Ratio Ki (Sporosarcina pasteurii [6]) of 5 to 7 and a Ki [4] of 24 µM.

In the case of `COC(=O)/C(=C/c1ccc(OC)cc1)C[PH](=O)O`, the Ki [1] is reported as 149 µM and the Ki [4] is reported as 157 µM.

In the case of `COC(=O)/C(=C/c1ccc(F)cc1)CCP(=O)(O)O`, the Ki [1] is reported as 47.4 µM and the Ki [4] is reported as 48.4 µM.

With `O=C(O)/C(=C/c1ccccc1)C[PH](=O)O` the Ki [1] was 117 µM, the IC50 [2] was 344 µM and the IC50 [3] was 234 µM. For the same compound, the Ki [4] was 208 µM.

`O=C(O)/C(=C/c1ccc([N+](=O)[O-])cc1)CCP(=O)(O)O` gave a Ki [11] of 433 µM and a Ki [12] of 59.9 µM.

`COC(=O)/C(=C/c1ccc(F)cc1)CP(=O)(O)O` showed a Ki [1] of 62.9 µM and a Ki [4] of 73.2 µM.

`C=C(C(=O)OC)C(OC(C)=O)c1ccc([N+](=O)[O-])cc1` (configuration not stated) showed a Ratio (Sporosarcina pasteurii [7]) of 2.34 M⁻¹ s⁻¹, an IC50 [8] of 679 µM and an IC50 [9] of 224 µM.

`C=C(C(=O)OC)C(OC(C)=O)c1ccccc1` (configuration not stated) gave a Ratio (Sporosarcina pasteurii [7]) of under 1 M⁻¹ s⁻¹, an IC50 [8] of over 1000 µM and an IC50 [9] of 870 µM.

With `CP(=O)(O)C/C(=C\c1ccccc1)C(=O)O` the inhibition (Sporosarcina pasteurii [5]) was “inactive”.

With `COC(=O)/C(=C/c1ccccc1)CCP(=O)(O)O` the Ki [1] was 3.05 µM, the IC50 [2] was 4.28 µM and the IC50 [3] was 4.18 µM. For the same compound, the Ki [4] was 3.67 µM and the Ki [10] was 1.52 µM.

With `Cc1ccc(CC(CP(=O)(O)O)C(=O)O)cc1` (configuration not stated) the Ki [1] was 90.2 µM and the Ki [4] was 88 µM.

Work on `O=C(O)/C(=C/c1ccc(F)cc1)CP(=O)(O)O` yielded a Ki [1] of 9.79 µM and a Ki [4] of 13.4 µM.

With `O=C(O)/C(=C/c1ccccc1)CP(=O)(O)O` the Ki [1] was 13 to 13.1 µM, the IC50 [2] was 44.5 µM and the IC50 [3] was 27.8 µM. For the same compound, the Ki [4] was 16.1 µM.

`COC(=O)/C(=C/c1ccc(F)cc1)C[PH](=O)O` showed a Ki [1] of 14.5 µM, a Ratio Ki (Sporosarcina pasteurii [6]) of 5 to 7 and a Ki [4] of 17.9 µM.

In the case of `COC(=O)/C(=C/c1ccccc1)CP(=O)(O)CO`, the Ki [1] is reported as 293 µM, the IC50 [2] is reported as 465 µM and the IC50 [3] is reported as 309 µM. The Ki [4] was 327 µM.

With `COC(=O)/C(=C/c1ccccc1)CP(C)(=O)O` the inhibition (Sporosarcina pasteurii [5]) was “inactive”.

`Cc1ccc(/C=C(\C[PH](=O)O)C(=O)O)cc1` gave a Ki [1] of 23.4 µM.

Work on `O=C(O)/C(=C/c1ccc(F)cc1)CCP(=O)(O)O` yielded a Ki [1] of 27.9 µM and a Ki [4] of 32.3 µM.
